Experimental data published in ChEMBL document CHEMBL5465560, “Selectivity Literature for EUbOPEN Chemogenomic Library” (2024).
Changes are numbered by the printed parent chain.

Legend:
[1] = biological target: Casein kinase II subunit alpha (Homo sapiens, UniProt P68400); experiment: Selectivity interaction (Millipore kinase profiler) EUB0000124b CSNK2A1; conditions: at 10 µM
[2] = test system: T1, Receptor-type tyrosine-protein kinase FLT3 (Homo sapiens), P36888 [D835H]; experiment: (§1) Selectivity interaction (KinomeScan (DiscoverX)) EUB0000229b FLT3; conditions: at 1 µM
T1 sequence (whole entry): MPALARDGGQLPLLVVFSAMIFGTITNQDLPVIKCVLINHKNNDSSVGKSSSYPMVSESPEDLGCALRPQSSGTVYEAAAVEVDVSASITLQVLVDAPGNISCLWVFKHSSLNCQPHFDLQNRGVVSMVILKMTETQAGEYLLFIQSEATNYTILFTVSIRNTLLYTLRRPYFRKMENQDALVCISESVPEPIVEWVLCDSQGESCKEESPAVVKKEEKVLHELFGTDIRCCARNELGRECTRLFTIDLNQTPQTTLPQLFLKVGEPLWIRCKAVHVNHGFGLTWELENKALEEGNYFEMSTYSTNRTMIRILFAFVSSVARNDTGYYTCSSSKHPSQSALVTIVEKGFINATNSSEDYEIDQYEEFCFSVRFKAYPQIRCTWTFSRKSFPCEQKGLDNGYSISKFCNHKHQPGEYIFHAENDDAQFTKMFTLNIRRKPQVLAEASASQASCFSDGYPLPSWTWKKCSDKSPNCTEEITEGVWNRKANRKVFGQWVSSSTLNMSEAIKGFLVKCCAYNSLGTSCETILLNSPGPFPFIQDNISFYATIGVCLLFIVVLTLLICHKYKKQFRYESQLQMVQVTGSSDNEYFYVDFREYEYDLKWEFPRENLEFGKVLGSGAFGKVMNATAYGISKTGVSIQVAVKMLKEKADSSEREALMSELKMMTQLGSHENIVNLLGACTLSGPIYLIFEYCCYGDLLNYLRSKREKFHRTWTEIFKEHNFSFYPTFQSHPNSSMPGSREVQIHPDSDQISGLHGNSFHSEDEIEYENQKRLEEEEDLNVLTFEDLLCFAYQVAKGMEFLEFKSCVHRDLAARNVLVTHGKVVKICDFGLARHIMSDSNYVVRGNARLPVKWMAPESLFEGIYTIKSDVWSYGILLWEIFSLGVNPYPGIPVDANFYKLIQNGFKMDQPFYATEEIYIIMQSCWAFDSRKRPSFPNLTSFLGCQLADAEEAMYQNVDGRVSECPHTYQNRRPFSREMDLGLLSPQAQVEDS

[3] = test system: T2, Receptor-type tyrosine-protein kinase FLT3 (Homo sapiens), P36888 [K663Q]; experiment: as §1; conditions: at 1 µM
T2 sequence (whole entry): T1 sequence (whole entry) with K663Q, H835D

[4] = test system: T3, Receptor-type tyrosine-protein kinase FLT3 (Homo sapiens), P36888 [N841I]; experiment: as §1; conditions: at 1 µM
T3 sequence (whole entry): T1 sequence (whole entry) with H835D, N841I

[5] = biological target: Nuclear receptor subfamily 1 group I member 2 (Homo sapiens, UniProt O75469); experiment: Selectivity interaction (Pregnane X Receptor (PXR, SXR) binding, human recombinant ) EUB0000877a NR1I2
Chain of Nuclear receptor subfamily 1 group I member 2 (O75469 whole entry): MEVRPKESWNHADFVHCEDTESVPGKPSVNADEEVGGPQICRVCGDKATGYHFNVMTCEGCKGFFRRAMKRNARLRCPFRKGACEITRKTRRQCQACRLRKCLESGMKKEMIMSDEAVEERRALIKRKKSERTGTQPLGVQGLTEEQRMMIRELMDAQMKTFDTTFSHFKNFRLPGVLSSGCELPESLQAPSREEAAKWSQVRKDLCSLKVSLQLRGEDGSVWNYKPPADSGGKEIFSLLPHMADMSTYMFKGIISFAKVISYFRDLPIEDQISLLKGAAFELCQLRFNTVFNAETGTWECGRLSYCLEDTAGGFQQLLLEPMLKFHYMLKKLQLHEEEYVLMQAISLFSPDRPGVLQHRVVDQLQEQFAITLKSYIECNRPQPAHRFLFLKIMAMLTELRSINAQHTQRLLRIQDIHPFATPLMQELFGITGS

Chain of Casein kinase II subunit alpha (P68400 whole entry, looked up): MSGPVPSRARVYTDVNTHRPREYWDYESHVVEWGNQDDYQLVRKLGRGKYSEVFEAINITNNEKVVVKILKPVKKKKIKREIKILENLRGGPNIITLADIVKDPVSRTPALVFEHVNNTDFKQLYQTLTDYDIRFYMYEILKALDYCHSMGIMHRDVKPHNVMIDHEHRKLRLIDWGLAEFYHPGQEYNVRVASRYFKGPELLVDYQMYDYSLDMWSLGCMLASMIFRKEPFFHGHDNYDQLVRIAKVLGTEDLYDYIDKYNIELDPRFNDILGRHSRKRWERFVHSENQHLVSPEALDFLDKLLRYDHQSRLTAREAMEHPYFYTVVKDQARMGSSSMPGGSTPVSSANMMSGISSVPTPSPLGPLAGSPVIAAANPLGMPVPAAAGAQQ

Structure (SMILES): CC(=O)Nc1cccc(-n2c(=O)n(C3CC3)c(=O)c3c(Nc4ccc(I)cc4F)n(C)c(=O)c(C)c32)c1
- % of control [1]: 101%

Structure (SMILES): COc1cc(N(C)c2ccnc3ccc(C(F)(F)F)cc23)cc(OC)c1OC
- % binding [2]: 90%
- % binding [3]: 76%
- % binding [4]: 84%

Structure (SMILES): CCC(=O)N1CC[C@H](Nc2ncnc3c2CN(c2cnc(OC)c(C(F)(F)F)c2)CC3)C1 [LENIOLISIB]
- IC50 [5]: > 30 µM
